According to patent US9939427B2, “Method for evaluating the scent performance of perfumes or perfume mixtures” (Symrise AG, priority 2013, dated 2018):
Entries after “also recorded” stand apart in the source; their conditions may differ. Blank lines part the entries; values can stand above or below the compound they belong to.

Experiments:
OR10C1 = target: T1, OR10C1 (Homo sapiens, UniProt Q96KK4); experiment: Ca-imaging of OR10C1-transfected HEK293 cells; assay type: cell-based; set-up: key: ▪: 18 olfactory receptors responded to 32 odorants in related with specific anosmia; details: individual odorant 200 μM, significant response p<0.05
T1 construct: specific primers, which amplify the complete open reading frame; expressed in transfected cells; host or cells: HEK293
T1 sequence (Q96KK4 whole entry): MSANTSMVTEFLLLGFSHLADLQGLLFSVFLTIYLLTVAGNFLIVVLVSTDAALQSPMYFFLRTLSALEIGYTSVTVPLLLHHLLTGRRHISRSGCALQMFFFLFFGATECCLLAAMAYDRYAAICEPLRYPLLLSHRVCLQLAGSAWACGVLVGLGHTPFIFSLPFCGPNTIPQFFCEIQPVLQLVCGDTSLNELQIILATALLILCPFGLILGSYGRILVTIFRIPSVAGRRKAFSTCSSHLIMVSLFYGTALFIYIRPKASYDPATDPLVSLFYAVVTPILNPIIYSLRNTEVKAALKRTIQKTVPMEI
Description: (§1) HEK293 cells were cultivated in Petri dishes (Ø35 mm) as previously described (Benbernou et al. 2007). We grow up HEK293 cells in culture medium containing standard DMEM with 10% heat-inactivated fetal bovine serum, 2 mM L-glutamine, 100 units/ml penicillin, and 100 units/ml streptomycin in a humidified atmosphere (37° C., 5% CO2). After 2-3 days, the transfection process was carried out, whereby the cell culture was 70-80% confluent. The calciumphosphate method was applied to transfect DNA plasmid transiently in HEK293 cells in case of Ca-imaging method.
(§2) Calcium cations and phosphate anions created crystal precipitations coupled with DNA which could invade into the cells through endocytosis. […]
(§3) Calcium imaging of the transfected HEK293 cells was done by using chambers determinate an inverted microscope (Olympus; IX70) using a 10× objective (CPIanFL N Olympus). Fluorescence emission was determined every 4 s by using a CCD camera (Charge Coupled Device, C9100 Hamamatsu). […] Odorants were manually monitored to drop each 4-5 s to transfected cells. […]
(§4) In experiments, Fura-2 Acetoxymethylester (Fura-2/AM) was applied. […] According to this feature, the analysis of 340/380 nm excitation ratio for Fura-2 allows to quantify intracellular calcium levels. […]

OR5I1 = target: T2, OR5I1 (Homo sapiens, UniProt Q13606); experiment: Ca-imaging of OR5I1-transfected HEK293 cells; assay type: cell-based; set-up: key to OR5I1 responded to odorant: ▪: 18 olfactory receptors responded to 32 odorants in related with specific anosmia
T2 construct: specific primers, which amplify the complete open reading frame; expressed in transfected cells; host or cells: HEK293
T2 sequence (Q13606 whole entry): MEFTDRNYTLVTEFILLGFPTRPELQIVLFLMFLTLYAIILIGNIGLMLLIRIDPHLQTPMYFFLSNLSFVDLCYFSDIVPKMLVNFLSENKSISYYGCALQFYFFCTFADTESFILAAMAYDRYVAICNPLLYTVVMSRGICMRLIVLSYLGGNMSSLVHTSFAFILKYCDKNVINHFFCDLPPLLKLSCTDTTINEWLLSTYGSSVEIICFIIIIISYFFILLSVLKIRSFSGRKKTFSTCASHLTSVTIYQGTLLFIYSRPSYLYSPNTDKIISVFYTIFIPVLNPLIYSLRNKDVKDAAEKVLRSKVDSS
Description: as §1, §2, §3, §4

OR5L1 = target: T3, OR5L1 (Homo sapiens, UniProt Q8NGL2); experiment: Ca-imaging of OR5L1-transfected HEK293 cells; assay type: cell-based; set-up: key: ▪: 18 olfactory receptors responded to 32 odorants in related with specific anosmia; details: individual odorant 200 μM, significant response p<0.05
T3 construct: specific primers, which amplify the complete open reading frame; expressed in transfected cells; host or cells: HEK293
T3 sequence (Q8NGL2 whole entry): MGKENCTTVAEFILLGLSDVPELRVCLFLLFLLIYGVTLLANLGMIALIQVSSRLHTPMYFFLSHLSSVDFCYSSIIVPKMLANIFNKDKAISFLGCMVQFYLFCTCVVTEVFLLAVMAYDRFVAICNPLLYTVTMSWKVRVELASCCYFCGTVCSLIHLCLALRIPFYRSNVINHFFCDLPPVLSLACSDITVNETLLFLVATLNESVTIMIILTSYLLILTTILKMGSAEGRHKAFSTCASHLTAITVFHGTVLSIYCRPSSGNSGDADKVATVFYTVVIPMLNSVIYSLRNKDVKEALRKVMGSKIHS
Description: as §1, §2, §3, §4

OR4C3 = target: T4, OR4C3 (Homo sapiens, UniProt Q8NH37); experiment: Ca-imaging of OR4C3-transfected HEK293 cells; assay type: cell-based; set-up: key: ▪: 18 olfactory receptors responded to 32 odorants in related with specific anosmia; details: individual odorant 200 μM, significant response p<0.05
T4 construct: specific primers, which amplify the complete open reading frame; expressed in transfected cells; host or cells: HEK293
T4 sequence (Q8NH37 whole entry): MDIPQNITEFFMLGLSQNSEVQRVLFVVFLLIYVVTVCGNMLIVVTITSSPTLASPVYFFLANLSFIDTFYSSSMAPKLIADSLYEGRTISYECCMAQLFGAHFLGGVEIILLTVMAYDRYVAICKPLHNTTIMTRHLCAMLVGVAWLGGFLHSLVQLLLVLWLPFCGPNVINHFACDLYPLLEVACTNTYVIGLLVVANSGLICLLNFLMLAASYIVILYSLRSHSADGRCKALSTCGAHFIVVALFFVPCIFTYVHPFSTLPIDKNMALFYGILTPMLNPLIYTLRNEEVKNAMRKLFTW
Description: as §1, §2, §3, §4

OR4C16 = target: T5, OR4C16 (Homo sapiens, UniProt Q8NGL9); experiment: Ca-imaging of OR4C16-transfected HEK293 cells; assay type: cell-based; set-up: key to OR4C16 responded to odorant: ▪: 18 olfactory receptors responded to 32 odorants in related with specific anosmia
T5 construct: specific primers, which amplify the complete open reading frame; expressed in transfected cells; host or cells: HEK293
T5 sequence (Q8NGL9 whole entry): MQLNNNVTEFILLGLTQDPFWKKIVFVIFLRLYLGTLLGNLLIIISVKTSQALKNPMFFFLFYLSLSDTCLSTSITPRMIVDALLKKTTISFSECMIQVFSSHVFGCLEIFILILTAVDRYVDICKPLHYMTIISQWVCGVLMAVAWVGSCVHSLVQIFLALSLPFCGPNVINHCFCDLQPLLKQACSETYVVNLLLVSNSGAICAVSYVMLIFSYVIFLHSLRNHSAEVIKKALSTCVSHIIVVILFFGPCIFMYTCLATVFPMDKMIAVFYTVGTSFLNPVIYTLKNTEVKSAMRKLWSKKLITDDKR
Description: as §1, §2, §3, §4

OR1B1 = target: T6, OR1B1 (Homo sapiens, UniProt Q8NGR6); experiment: Ca-imaging of OR1B1-transfected HEK293 cells; assay type: cell-based; set-up: key to OR1B1 responded to odorant: ▪: 18 olfactory receptors responded to 32 odorants in related with specific anosmia; details: for Number of cell responses, Experiment (OR1B1): odorant 200 μM, approximately 2000 transfected cells in three times of measuring (Table 4, FIG. 5)
T6 construct: specific primers, which amplify the complete open reading frame; expressed in transfected cells; host or cells: HEK293
T6 sequence (Q8NGR6 1-317): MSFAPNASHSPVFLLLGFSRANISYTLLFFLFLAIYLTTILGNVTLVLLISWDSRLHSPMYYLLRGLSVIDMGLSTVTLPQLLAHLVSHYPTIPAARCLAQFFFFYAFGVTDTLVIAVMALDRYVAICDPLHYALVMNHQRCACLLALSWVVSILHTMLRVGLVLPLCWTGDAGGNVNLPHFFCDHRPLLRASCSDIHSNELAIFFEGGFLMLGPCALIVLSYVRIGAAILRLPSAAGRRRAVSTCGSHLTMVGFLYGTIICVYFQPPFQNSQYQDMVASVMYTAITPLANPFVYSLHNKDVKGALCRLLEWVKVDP
Description: as §1
(§5) Calcium cations and phosphate anions created crystal precipitations coupled with DNA which could invade into the cells through endocytosis. Cells were transiently transfected with plasmid DNA which consists of pCI expression vector and PCR-amplified full-length cDNA of olfactory receptors candidates, and also Gα15, RTP1, Myr-Ric8A, HSC70, and m-Cherry as cofactors. The precipitation could be created after 15-20 min, with dropping the transfection solution on HEK293 cells. Before measuring by Ca-imaging cells were incubated 48-60 hours at 370 C, 5% CO2. Cationic liposome-mediated transfection method was applied to transfect DNA plasmid transiently in HANA3A cells in case of CRE-Luciferase and CRE-SEAP assays.
(§6) Calcium imaging of the transfected HEK293 cells was done by using chambers determinate an inverted microscope (Olympus; IX70) using a 10× objective (CPIanFL N Olympus). Fluorescence emission was determined every 4 s by using a CCD camera (Charge Coupled Device, C9100 Hamamatsu). The capillary tube which was responsible to supply odorants was generated closely above the cells. The columns filled with odorants, DMSO and ATP. Odorants were manually monitored to drop each 4-5 s to transfected cells. Solutions with drop wise form spread on HEK293 cells in 35 mm dishes.
(§7) In experiments, Fura-2 Acetoxymethylester (Fura-2/AM) was applied. The non-polar Fura2/AM is fluorescent but not yet calcium-sensitive. Once diffuses into cell plasma, Fura-2/AM is hydrolyzed to Fura-2 which is calcium-sensitive and functions as Ca2+ chelator. Regardless of the presence of calcium, Fura-2 emits at the wavelength of 510 nm. Once Fura-2 binds to free intracellular Ca2+ in cell plasma, its ratio of excitation at wavelengths of 340 nm and 380 nm is changed and correlated to the amount of intracellular Ca2+. According to this feature, the analysis of 340/380 nm excitation ratio for Fura-2 allows to quantify intracellular calcium levels.
(§8) In preparation for Ca-imaging measurements, transfected HEK293 cells were added 3 it Fura2/AM (3 μM) and incubated 30-45 min at 370 C, 5% CO2. After this step, experiments were carried out in a dark condition (Fura-2 is light-sensitive). After the incubation, medium of cell culture was replaced with 2 ml Ringer's solution.
(§9) Odorants were freshly prepared with DMSO as 1 M stocks solutions. Six mixtures (200 μM each chemical) were applied to cells sequentially (20 s each mixture/30 s Ringer). Those ORs tested with single odorants that had generated a response to odorant mixture group previously. Odorants were prepared in 100-200 μM concentration.
(§10) Ringer's solution was used for washing cells between measuring by two different odorants. Positive response was determined by the timing of the response, the strength of the response (more than twofold higher than the noise amplitude of the baseline), and the shape of the response curve (sharp rise in curve with gradual recovery). The typical shape of response curves was established by observing responses to repeated stimulation with 200 μM of odorants. After testing with single odorants at 100 μM, stimulating odorants were often retested at 200 μM concentrations. To confirm the result of every receptor that produced a significant response curves, the experiment was repeated for twelve times. Finally, cells were exposed to ATP (0.25 mM) which could activate P2Y receptor channel and induce Ca2+ influx into cells. […]

OR1B1-574 = target: T7, OR1B1-574 (Homo sapiens, UniProt Q8NGR6); experiment: Ca-imaging of mutant OR1B1-574 in HEK293 cells; assay type: cell-based; details: 200 μM, applied for 20 seconds
T7 construct: Rho-tag (N); expressed in transfected cells; host or cells: HEK293
Description: (§11) Mutations were introduced for OR1B1 and OR10Q1 by Overlap Extension PCR (OEP). […] Flanking primers in combination with internal primers provided mutated gene segments, Full length primers included EcoRI and NotI restriction sites for further cloning into pCI expression vector. Site-directed mutations were selected for base of minor allele frequency of nucleotide.
(§12) In mutagenesis by overlap extension PCR method, initial PCRs provided mutated gene segments, with overlapping complementary 3′ ends carrying desired point mutation that were then mixed and used as template for a subsequent PCR to generate the full-length product. Overlapping strands of these intermediate products hybridize at this 3′ region in a subsequent PCR and are extended to generate the full-length product amplified by flanking primers; this shown in FIG. 2. […]
as §3, §4

[1] = test system: HEK293 cells transfected with all cofactors and pCI plasmids without ORs; experiment: Ca-imaging of control HEK293 cells without OR; assay type: cell-based
Description: as §1, §5, §6, §7, §8, §9, §10

OR1B1-789 = target: T8, OR1B1-789 (Homo sapiens, UniProt Q8NGR6, C262W); experiment: Ca-imaging of mutant OR1B1-789 in HEK293 cells; assay type: cell-based; details: 200 μM, applied for 20 seconds, listed as androstenone
T8 construct: Full length primers included EcoRI and NotI restriction sites for further cloning into pCI expression vector; Rho-tag (N); expressed in transfected cells; host or cells: HEK293
T8 sequence (Q8NGR6 whole entry C262W): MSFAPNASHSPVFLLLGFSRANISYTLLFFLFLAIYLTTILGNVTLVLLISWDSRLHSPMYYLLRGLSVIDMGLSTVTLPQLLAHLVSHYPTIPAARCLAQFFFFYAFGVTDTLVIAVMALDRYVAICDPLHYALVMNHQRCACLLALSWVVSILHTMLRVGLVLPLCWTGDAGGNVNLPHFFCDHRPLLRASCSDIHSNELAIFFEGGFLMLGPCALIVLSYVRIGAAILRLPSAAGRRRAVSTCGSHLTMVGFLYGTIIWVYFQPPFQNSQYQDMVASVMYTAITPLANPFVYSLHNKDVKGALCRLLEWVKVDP
Description: as §11, §12, §3, §4

OR1B1-688 = experiment: Ca-imaging of mutant OR1B1-688 in HEK293 cells; assay type: cell-based, human; details: 200 μM, applied for 20 seconds, listed as androstenone
Description: as §11, §12, §3, §4

[2] = HEK293 cells, individual odorant 200 μM, significant response p<0.05

SMILES: CCC(C)=O [Odorant 2-butanone, 2-Butanone]
OR10C1 responded to odorant (OR10C1): ▪

SMILES: C/C=C/C(=O)C1=C(C)CCCC1(C)C [B-Damascone, β-Damascone]
OR5L1 responded to odorant (OR5L1): ▪ | OR4C3 responded to odorant (OR4C3): ▪

SMILES: C[C@]12CCC(=O)C[C@@H]1CC[C@@H]1[C@@H]2CC[C@]2(C)C=CC[C@@H]12 [Androstenon, 5α-Androst-16-en-3-one]
Number of cell responses of OR1B1 (FIG. 8) (OR1B1; 200 μM, approximately 2000 cells in three times of measuring, steroid comparison): 13 | OR1B1 responded to odorant (OR1B1; Ca-imaging, HEK293 cells, individual odorant 200 μM, significant response p<0.05): ▪ | Response of OR1B1 to odorant, in words (OR1B1; Ca-imaging, single odorants 200 μM, listed as androstenone): significantly (P<0.05) activated; also recorded: responded | Number of cell responses, Experiment (OR1B1) (OR1B1; listed as Andorestenone): 20 | Number of cell responses, Experiment (OR1B1) (OR1B1; listed as androstenone): 35 | Response of OR1B1-574 in comparison to OR1B1 WT (OR1B1-574): not able to reproduce responses | Number of cell responses in controls (FIG. 8, 11, 12) ([1]; 200 μM, steroid comparison): 3 | Number of cell responses, Control ([1]; odorant 200 μM, three times of measuring (Table 4, FIG. 5)): 0 | Response of OR1B1-789 in comparison to OR1B1 WT (OR1B1-789): no significantly different responses; also recorded: did not show any significant difference | Response of OR1B1-688 in comparison to OR1B1 WT (OR1B1-688): no significantly different responses; also recorded: did not show any significant difference

Further lines, results first:

OR10C1 responded to odorant (OR10C1): ▪
SMILES: CCCCCC1C(=O)CCC1CC(=O)OC (centres unmarked) [Hedione, Hedion]

OR5I1 responded to odorant (OR5I1; [2]): ▪ | Response of OR5I1 to odorant, in words (OR5I1; single odorants 200 μM): responded
SMILES: CCCCCCCC=O [Octanal]

OR4C16 responded to odorant (OR4C16; [2]): ▪ | Response of OR4C16 to odorant, in words (OR4C16; single odorants 200 μM): responded | OR5L1 responded to odorant (OR5L1): ▪
SMILES: CCCCCC1CCC(=O)O1 (centres unmarked) [Aldehyde C18]

OR4C3 responded to odorant (OR4C3): ▪
SMILES: CC(C)CCC(=O)O [Isocaproic acid]
